# Measurements: ChEMBL document CHEMBL1125004, “Chemistry and pharmacology of the non-benzodiazepine anxiolytic enciprazine and related compounds” (1990)
# The source made the active and inactive calls. No cut-off for these calls is given here.
# Legend:
# Rattus norvegicus [1] = test: Effect on diarrheal after oral administration of 100 mg/kg in rat was determined; '-' No effect; format: functional, organism-based; parameters: dose 100 mg/kg
# Rattus norvegicus [2] = test: Effect on tremor after oral administration of 50 mg/kg in rat was determined; '-' No effect; format: functional, organism-based; parameters: dose 50 mg/kg
# Rattus norvegicus [3] = test: Effect on restlessness after oral administration of 50 mg/kg in rat was determined; '-' No effect; format: functional, organism-based; parameters: dose 50 mg/kg
# Rattus norvegicus [4] = test: Effect on restlessness after oral administration of 100 mg/kg in rat was determined; '-' No effect; format: functional, organism-based; parameters: dose 100 mg/kg
# Rattus norvegicus [5] = test: Effect on jumping after oral administration of 50 mg/kg in rat was determined; '-' No effect; format: functional, organism-based; parameters: dose 50 mg/kg
# Rattus norvegicus [6] = test: Effect on salivation after oral administration of 50 mg/kg in rat was determined; '-' No effect; format: functional, organism-based; parameters: dose 50 mg/kg
# Rattus norvegicus [7] = test: Effect on diarrheal after oral administration of 50 mg/kg in rat was determined; '-' No effect; format: functional, organism-based; parameters: dose 50 mg/kg
# Rattus norvegicus [8] = test: Effect on tremor after oral administration of 100 mg/kg in rat was determined; '-' No effect; format: functional, organism-based; parameters: dose 100 mg/kg
# Rattus norvegicus [9] = test: Effect on piloerection after oral administration of 100 mg/kg in rat was determined; '-' No effect; format: functional, organism-based; parameters: dose 100 mg/kg
# Rattus norvegicus [10] = test: Effect on piloerection after oral administration of 50 mg/kg in rat was determined; '-' No effect; format: functional, organism-based; parameters: dose 50 mg/kg
# [11] = Ratio of ED50 (rotarod) to that of ED50 (fighting); format: functional
# [12] = Ratio of ED50 (hexobarbital) to that of ED50 (fighting); format: functional
# Rattus norvegicus [13] = test: Effect on jumping after oral administration of 100 mg/kg in rat was determined; '-' No effect; format: functional, organism-based; parameters: dose 100 mg/kg
# [14] = Ratio of ED50 (ethanol) to that of ED50 (fighting); format: functional
# Rattus norvegicus [15] = test: Effect on salivation after oral administration of 100 mg/kg in rat was determined; '-' No effect; format: functional, organism-based; parameters: dose 100 mg/kg
# Mus musculus [16] = species on record: Mus musculus; test: Effect on hexobarbital induced sleep was determined in hexobarbital potentiation test; Range; format: functional
# Mus musculus [17] = test: Antiaggressive anxiolytic activity in the electroshock-induced fighting test in mice (po); Range (10.32-18.72); format: functional
# Mus musculus [18] = species on record: Mus musculus; test: Ataxic activity in mice by rotarod test; Range (64.3-92.1); format: functional
# Mus musculus [19] = species on record: Mus musculus; test: Effect on alcohol induced sleep was determined in ethanol potentiation test; Range; format: functional
# Mus musculus [20] = species on record: Mus musculus; test: Ataxic activity in mice by rotarod test; Range (2.2-6.4); format: functional
# Mus musculus [21] = species on record: Mus musculus; test: Effect on hexobarbital induced sleep was determined in hexobarbital potentiation test; Range (9.6-17.1); format: functional
# Mus musculus [22] = test: Antiaggressive anxiolytic activity in the electroshock-induced fighting test in mice (po); Range (1.03-4.7;); format: functional
compound,measurement,setting,value
COc1ccccc1N1CCN(CC(O)COc2cc(OC)c(OC)c(OC)c2)CC1 (configuration not stated),Effect,Rattus norvegicus [1],inactive
same,Effect,Rattus norvegicus [2],inactive
same,Effect,Rattus norvegicus [3],inactive
same,Effect,Rattus norvegicus [4],inactive
same,Effect,Rattus norvegicus [5],inactive
same,Effect,Rattus norvegicus [6],inactive
same,Effect,Rattus norvegicus [7],inactive
same,Effect,Rattus norvegicus [8],inactive
same,Effect,Rattus norvegicus [9],inactive
same,Effect,Rattus norvegicus [10],inactive
same,Therapeutic index,[11],86
same,Therapeutic index,[12],33
same,Effect,Rattus norvegicus [13],inactive
same,Therapeutic index,[14],32.5
same,Effect,Rattus norvegicus [15],inactive
O=C1CC2(CCCC2)CC(=O)N1CCCCN1CCN(c2ncccn2)CC1 [BUSPIRONE],ED50,Mus musculus [16],54.5 mg/kg
same,ED50,Mus musculus [17],14.5 mg/kg
same,Therapeutic index,[11],5.3
same,Therapeutic index,[12],0.7
same,Therapeutic index,[14],0.8
same,ED50,Mus musculus [18],77 mg/kg
same,ED50,Mus musculus [19],62.8 mg/kg
CN1C(=O)CC(=O)N(c2ccccc2)c2cc(Cl)ccc21 [CLOBAZAM],ED50,Mus musculus [20],4.1 mg/kg
same,ED50,Mus musculus [21],13.2 mg/kg
same,Therapeutic index,[11],1.8
same,Therapeutic index,[12],5.6
same,ED50,Mus musculus [22],2.35 mg/kg
